Source: US11274328B2, “Methods for producing rebaudioside D and rebaudioside M and compositions thereof” (SICHUAN INGIA BIOSYNTHETIC CO., LTD., priority 2018, dated 2022)
One block for each compound: values may come before it.

Tests used:
[1] = Sensory analysis (triangle test), taste comparison with sucrose as control sample; format: in vivo; conditions: vs sucrose; for Difference (number of answers) / No difference (number of answers): aqueous solutions of same sweetness
Source text: The sweetener composition shall be tested, evaluated and analyzed by referring to Sensory Analysis Methodology (Triangular Test) (BS ISO 4120) and Sensory Analysis Method (Triangle Test) (GB/T 12311). The specific analysis method is as follows:
Method and principle: A group of three samples shall be provided to evaluators, two of which are identical and the evaluators shall select a single sample.
Preparation of test samples: Enough samples A and B shall be provided, and every three test samples are a group.
Sample groups with equal number of samples shall be prepared from laboratory samples in the following six combinations: ABB, AAB, ABA, BAA, BBA and BAB.
Test requirements: Evaluators shall not make conclusion as to the nature of samples from sample supply methods. All test sample groups shall be prepared in the same way [the same equipment, the same container, the same quantity of products and the same arrangement (triangle, straight line, etc.)]. In any sample group, the temperature of test samples shall be the same, and if possible, the temperature of all other sample groups in the test series provided shall also be the same. Test sample containers shall be numbered generally with three random digits. The number shall be different for each test.
Test techniques: Evaluators shall be notified of the test purpose to the extent that their conclusions are not biased. Groups of prepared samples shall be randomly assigned to the evaluators, then the evaluators shall check test samples of each group in the specified order, and the order shall be the same in the same series of tests. While evaluating three test samples in the same group, the evaluators shall have the opportunity to retest each sample. The test leader can tell the evaluators the quantity and volume of samples provided when necessary. When the number of evaluators is less than a multiple of 6, the following two approaches can be taken. (a) Discard redundant sample groups, or (b) Provide each evaluator with six groups of samples for retest.
When the evaluator cannot identify the difference, the answer “no difference” is allowed.
The number of “difference” or “no difference” answers shall be counted. When the number of evaluators (n) is greater than 100, the minimum number of answers needed to determine the significant difference in the triangle test at different significance levels (X) is calculated according to the following formula, and the nearest integer value shall be taken. Where, α is the significance level, which is an expected value.
The above evaluation and analysis methods were applied to analyze different compositions, with sucrose as the control sample. Samples and the control sample were prepared respectively into aqueous solutions with the same sweetness and then tested according to the requirements of the above-mentioned sensory analysis method. […]
Rebaudioside A (>97%), DM 3:1 mixture, DM 3:1 mixture-rebaudioside A (1:9, w/w), DM 3:1 mixture-rebaudioside A (9:1, w/w), DM 3:1 mixture-rebaudioside A (3:7, w/w) were analyzed according to the evaluation and analysis methods described above, with sucrose as the control sample. Samples and the control sample were prepared respectively into aqueous solutions with the same sweetness and then tested according to the requirements of the above-mentioned sensory analysis method. […]
Rebaudioside A (>97%), DM 3:1 mixture, DM 3:1 mixture-rebaudioside A (3:7, w/w), DM 3:1 mixture-rebaudioside A (7:3, w/w), DM 3:1 mixture-rebaudioside A (4:6, w/w) were analyzed according to the evaluation and analysis methods described above, with sucrose as the control sample. Samples and the control sample were prepared respectively into aqueous solutions with the same sweetness and then tested according to the requirements of the above-mentioned sensory analysis method. Effective evaluators are 125 primary evaluators, who were allowed to answer “no difference”. […]

[2] = relative to sucrose of the same weight; cited from earlier work
[3] = Solubility of reb M in water and solvents; format: physicochemical
[4] = Heat and pH stability of reb M; format: physicochemical
[5] = Evaluation I, 135 primary evaluators
[6] = Evaluation II, 135 primary evaluators
[7] = Evaluation III, 125 primary evaluators
[8] = Evaluation IV, 128 primary evaluators

Compound: 13-[(2O-β-D-glucopyranosyl-3-O-β-D-glucopyranosyl-β-D-glucopyranosyl)oxy]kaur-16-en18-oic acid, 2-O-β-D-glucopyranosyl-3-O-β-D-glucopyranosyl-β-D-glucopyranosyl ester [RD]
- Difference (number of answers) [1, 5]: 79
- No difference (number of answers) [1, 5]: 56
- Conclusion (taste compared with sucrose) [1, 5]: Similar
- Sweetness Multiple (1 for sucrose of the same weight) [2]: 150-250

Compound: C=C1C[C@@]23CC[C@H]4[C@@](C)(CCC[C@@]4(C)C(=O)O[C@@H]4O[C@H](CO)[C@@H](O)[C@H](O)[C@H]4O)[C@@H]2CC[C@]1(O[C@@H]1O[C@H](CO)[C@@H](O)[C@H](O[C@@H]2O[C@H](CO)[C@@H](O)[C@H](O)[C@H]2O)[C@H]1O[C@@H]1O[C@H](CO)[C@@H](O)[C@H](O)[C@H]1O)C3 [RA, rebaudioside A]
- Difference (number of answers) [1, 6]: 85
- No difference (number of answers) [1, 6]: 50
- Conclusion (taste compared with sucrose) [1, 6]: Dissimilar
- Difference (number of answers) [1, 7]: 78
- No difference (number of answers) [1, 7]: 47
- Conclusion (taste compared with sucrose) [1, 7]: Dissimilar
- Difference (number of answers) [1, 8]: 82
- No difference (number of answers) [1, 8]: 46
- Conclusion (taste compared with sucrose) [1, 8]: Dissimilar
- Sweetness Multiple (1 for sucrose of the same weight) [2]: 350-450

- solubility in organic solvents ([3]; acetone, benzene, chloroform, and ether): insoluble
- solubility in diluted alcohols ([3]; diluted solutions of methanol, ethanol, n-propanol, and isopropanol): soluble
- solubility in water ([3]; water, increases with an increase in temperature): around 0.3%
- heat and pH stability [4]: heat and pH-stable
Compound: C=C1C[C@@]23CC[C@H]4[C@@](C)(CCC[C@@]4(C)C(=O)O[C@@H]4O[C@H](CO)[C@@H](O)[C@H](O[C@@H]5O[C@H](CO)[C@@H](O)[C@H](O)[C@H]5O)[C@H]4O[C@@H]4O[C@H](CO)[C@@H](O)[C@H](O)[C@H]4O)[C@@H]2CC[C@]1(O[C@@H]1O[C@H](CO)[C@@H](O)[C@H](O[C@@H]2O[C@H](CO)[C@@H](O)[C@H](O)[C@H]2O)[C@H]1O[C@@H]1O[C@H](CO)[C@@H](O)[C@H](O)[C@H]1O)C3 [RM]
- Difference (number of answers) [1, 5]: 97
- No difference (number of answers) [1, 5]: 38
- Conclusion (taste compared with sucrose) [1, 5]: Dissimilar
- Sweetness Multiple (1 for sucrose of the same weight) [2]: 200-350

Compound: C=C1C[C@@]23CC[C@H]4[C@@](C)(CCC[C@@]4(C)C(=O)O[C@@H]4O[C@H](CO)[C@@H](O)[C@H](O)[C@H]4O)[C@@H]2CC[C@]1(O[C@@H]1O[C@H](CO)[C@@H](O)[C@H](O)[C@H]1O[C@@H]1O[C@H](CO)[C@@H](O)[C@H](O)[C@H]1O)C3 [STv, stevioside, reference compound]
- Sweetness Multiple (1 for sucrose of the same weight) [2]: 270-300
